One test has as its target CYP2D6 (Homo sapiens (Human), UniProt P10635). The test can be described thus: Cytochrome oxidase P450 inhibition study, CYP2D6. It is filed as in vitro ADME. The settings on record: human liver microsomes; read-out: IC50 2D6. Here is the method:
(§1) LC-MS/MS methods were used to evaluate the inhibitory effects of compounds on CYP2C19, 2D6 and 3A4 subtypes. In this method, the test compound was mixed with a solution of human liver microsomes containing CYP model substrates, and incubated together under the addition of NADPH, then the inhibitory IC50 of the compound on CYP2C19, 2D6 and 3A4 was calculated by measuring the amount of metabolites of the model substrate in the reaction solution. The specific experimental method is as follows:
(§2) Compounds to be tested were prepared as stock solutions at 10 mM concentration with DMSO and then diluted to 4 mM with acetonitrile solution. At the same time, the corresponding reference inhibitor solutions for CYP subtypes were prepared, for example, the reference inhibitor was Ketoconazole, then these two compounds were prepared separately ([…] of inhibitor DMSO stock solution+[…] of acetonitrile), and the samples prepared under the above conditions were at 400× concentration. Then, the above solution was 3-fold diluted with DMSO/acetonitrile mixture (v/v: 40/60) to prepare the final test solution, and seven concentration points were set for each test compound, and the initial test final concentration was 10 μM. […]
(§3) […] of human liver microsome solution (0.2 mg/mL) was added to each well containing the test compound in the 96-well plate, and then 2 mL of the final test sample of test compounds prepared by serial dilution as described above was added thereto; for each well corresponding to the reference inhibitors, […] of human liver microsome solution (0.2 mg/mL) and 1 mL of the final test sample were added. […] The inhibition rate was determined by comparing the amount of model substrate metabolites at each test concentration without test substance addition, in the GraphPad Prism 5.0 software, the logarithm of the test concentration was used as the abscissa and the inhibition rate was used as the ordinate to perform a linear regression (Sigmoidal (non-linear) dose-response model) analysis to obtain the IC50 value of the test compound.

The next test deals with CYP2C19 (Homo sapiens (Human), UniProt P33261). The test can be described thus: Cytochrome oxidase P450 inhibition study, CYP2C19. The settings on record: human liver microsomes; read-out: IC50 2C19. It is filed as in vitro ADME. Here is the method: as §1, §2, §3
Chain of CYP2C19 (P33261 whole entry): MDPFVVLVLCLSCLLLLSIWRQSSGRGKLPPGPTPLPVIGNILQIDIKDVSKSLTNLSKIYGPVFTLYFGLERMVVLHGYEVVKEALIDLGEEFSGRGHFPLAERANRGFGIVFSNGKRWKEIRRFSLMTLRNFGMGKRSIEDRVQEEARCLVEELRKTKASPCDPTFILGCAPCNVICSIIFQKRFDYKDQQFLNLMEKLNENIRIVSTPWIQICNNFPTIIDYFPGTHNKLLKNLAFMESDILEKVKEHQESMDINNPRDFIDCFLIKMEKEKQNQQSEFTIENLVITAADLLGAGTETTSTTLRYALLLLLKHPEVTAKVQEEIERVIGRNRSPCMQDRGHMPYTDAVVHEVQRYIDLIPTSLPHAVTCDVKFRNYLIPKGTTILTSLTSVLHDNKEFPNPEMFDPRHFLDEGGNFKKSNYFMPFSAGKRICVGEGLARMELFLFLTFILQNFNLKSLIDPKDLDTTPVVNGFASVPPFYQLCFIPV
In general terms: Microsomes from liver hold many membrane-bound enzymes, among them those of drug oxidation.

Another test has as its target ATR/ATRIP kinase (Homo sapiens (Human), UniProt Q13535). The test can be described thus: ATR enzyme assay (HTRF, phosphorylation of substrate protein P53). It is filed as biochemical. The settings on record: substrate P53, TR-FRET. Here is the method:
In this experiment, the phosphorylation level of substrate protein P53 (Eurofins, 14-952) was detected by HTRF technology to measure the activity of ATR/ATRIP (Eurofins, 14-953) kinase. Reaction buffer (25 mM HEPES pH 8.0, 0.01% Brij-35, 1% Glycerol, 5 mM DTT, 1 mg/mL BSA), termination buffer (12.5 mM HEPES pH 8.0, 0.005% Brij-35, 0.5% Glycerol, 250 mM EDTA) and assay buffer (50 mM HEPES pH 7.0, 150 mM NaCl, 267 mM KF, 0.1% sodium cholate, 0.01% Tween 20) were prepared in advance. ATR/ATRIP was diluted with reaction buffer to a working solution of 2 ng/μL, and the substrate protein P53 was diluted with reaction buffer to a working solution of 80 nM, and 4 nM of ATP (Sigma, A2383) working solution (containing 40 mM MnCl2) was prepared with reaction buffer. The compound was 3-fold diluted with DMSO, then diluted with reaction buffer into a working solution, then added to a 384-well plate at 2.5 μL/well, and centrifuged at 1500 rpm for 40 s. Then 2.5 μL of ATR/ATRIP working solution, P53 working solution and ATP working solution were added into the 384-well plate, centrifuged at 1500 rpm for 40 s and reacted at room temperature for 30 minutes. After the reaction was completed, 5 μL of termination buffer was added to each well, and centrifuged at 1500 rpm for 40 s. Antibody working solution containing 0.083 μg/mL anti-phospho-p53 (Ser15)-K (CisBio, cat. 61P08KAE) and 5 μg/mL anti-GST-d2 (CisBio, cat. 61GSTDLA) was prepared with assay buffer and added to the 384-well plate at 5 μL/well, then centrifuged at 1500 rpm for 40 s and reacted overnight at room temperature. Microplate reader (Tecan, Infinite M1000 Pro) was used to detect TR-FRET, and the data were analyzed with Graphpad software, and the four-parameter equation was used to fit the curve and calculate the IC50 value of the inhibitor (Table 1).
A general note: TR-FRET usually uses a lanthanide donor and a delayed reading to cut background.

Test [1] relates to LOVO human colon cancer cell line. The test can be described thus: Cell proliferation assay (Cell titer glo). The test is classed as cell-based. The note with it: LOVO cells, 72 hours. Here is the method:
In the present disclosure, cell assays were used to evaluate the biological activity of compounds. LOVO (Nanjing Cobioer), a human colon cancer cell line, was cultured in a Dulbecco's Modified Eagle's medium 96-well plate, supplemented with 10% fetal bovine serum and 1% P/S, and the culture environment was 37° C. and 5% CO2. Compound concentrations were ranged from 4.5 nM to 30 μM. The stock solution of the test compound was dissolved in DMSO and added to the medium at the indicated concentration, and incubated for 72 hours. Negative control cells were treated with vehicle only. In some experiments, known ATR inhibitors were added as positive controls. Cell viability was evaluated using the Cell titer glo kit (CTG, Promega) under the instructions of the product specification. The data were analyzed using Graphpad software, and IC50 values and compound fitting curves were obtained (Table 2).

Another test concerns the target CYP3A4 (Homo sapiens (Human), UniProt P08684). The test can be described thus: Cytochrome oxidase P450 inhibition study, CYP3A4. It is filed as in vitro ADME. The settings on record: human liver microsomes. Here is the method: as §1
Compounds to be tested were prepared as stock solutions at 10 mM concentration with DMSO and then diluted to 4 mM with acetonitrile solution. At the same time, the corresponding reference inhibitor solutions for CYP subtypes were prepared, for example, the reference inhibitor was Ketoconazole, then these two compounds were prepared separately ([…] of inhibitor DMSO stock solution+[…] of acetonitrile), and the samples prepared under the above conditions were at 400× concentration. Then, the above solution was 3-fold diluted with DMSO/acetonitrile mixture (v/v: 40/60) to prepare the final test solution, and seven concentration points were set for each test compound, and the initial test final concentration was 10 μM. NADPH, CYP enzyme model substrate and human liver microsome solution were diluted to appropriate concentrations with pre-warmed potassium phosphate buffer (0.1 M, pH 7.4), respectively. The human liver microsome solution was purchased from BD Gentest (20 mg/mL, Corning, article number #452161).
[…] of human liver microsome solution (0.2 mg/mL) was added to each well containing the test compound in the 96-well plate, and then 2 mL of the final test sample of test compounds prepared by serial dilution as described above was added thereto; for each well corresponding to the reference inhibitors, […] of human liver microsome solution (0.2 mg/mL) and 1 mL of the final test sample were added. […] of the prepared corresponding model substrate was dispensed into a 96-well plate, and the microsome solution was mixed evenly, then 30 mL of the test compound/reference inhibitor-human liver microsome mixture was taken and transferred to the 96-well plate containing the substrate, and the mixture was mixed well and preheated at 37° C. for 5 minutes, then […] of 8 mM NADPH solution preheated at 37° C. was added thereto to start the reaction. A duplicate well control and a blank control without the addition of test substances were set at the same time. The 96-well plate containing a total volume of […] of reaction solution was incubated at 37° C. After the incubation, 120 μL of cold acetonitrile solution containing internal standard was added to each well to terminate the reaction, and then the 96-well plate was shaked on a microplate shaker for 5 minutes (600 rpm/min), and put into a centrifuge and centrifuged for 20 minutes at 6000 rpm, 4° C. Then 40 μL of supernatant from each well was transferred to another 96-well plate, and 80 μL of ultrapure water was added to each well, put into a shaker and mixed for 5 minutes (600 rpm/min), and centrifuged at 6000 rpm, 4° C., for 20 minutes. Then LC-MS/MS detection was performed. The inhibition rate was determined by comparing the amount of model substrate metabolites at each test concentration without test substance addition, in the GraphPad Prism 5.0 software, the logarithm of the test concentration was used as the abscissa and the inhibition rate was used as the ordinate to perform a linear regression (Sigmoidal (non-linear) dose-response model) analysis to obtain the IC50 value of the test compound.

[2] abbreviates: substrate Midazolam, read-out: IC50 3A4 (Midazolam).
Setting [3] is: substrate Testosterone, read-out: IC50 3A4 (Testosterone).

Each structure is given as a SMILES string. Counter-ions that a name gives are not always drawn. Like-named read-outs stand apart in the source and are kept apart here.

Chain of CYP3A4 (P08684 whole entry): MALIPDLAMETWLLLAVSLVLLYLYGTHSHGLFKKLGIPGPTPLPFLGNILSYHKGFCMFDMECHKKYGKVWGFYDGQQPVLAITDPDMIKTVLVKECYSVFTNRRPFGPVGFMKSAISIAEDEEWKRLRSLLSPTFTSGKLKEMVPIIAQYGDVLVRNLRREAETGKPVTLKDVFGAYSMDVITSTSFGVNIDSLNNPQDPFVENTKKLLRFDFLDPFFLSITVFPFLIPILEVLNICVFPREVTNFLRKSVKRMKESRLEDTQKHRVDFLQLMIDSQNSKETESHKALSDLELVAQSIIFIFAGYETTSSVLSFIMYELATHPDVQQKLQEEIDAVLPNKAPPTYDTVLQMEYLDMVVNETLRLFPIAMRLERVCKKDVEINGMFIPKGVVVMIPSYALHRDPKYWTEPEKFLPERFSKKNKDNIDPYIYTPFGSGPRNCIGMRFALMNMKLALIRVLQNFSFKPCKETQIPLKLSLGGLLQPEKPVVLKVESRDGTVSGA
Chain of CYP2D6 (P10635 whole entry): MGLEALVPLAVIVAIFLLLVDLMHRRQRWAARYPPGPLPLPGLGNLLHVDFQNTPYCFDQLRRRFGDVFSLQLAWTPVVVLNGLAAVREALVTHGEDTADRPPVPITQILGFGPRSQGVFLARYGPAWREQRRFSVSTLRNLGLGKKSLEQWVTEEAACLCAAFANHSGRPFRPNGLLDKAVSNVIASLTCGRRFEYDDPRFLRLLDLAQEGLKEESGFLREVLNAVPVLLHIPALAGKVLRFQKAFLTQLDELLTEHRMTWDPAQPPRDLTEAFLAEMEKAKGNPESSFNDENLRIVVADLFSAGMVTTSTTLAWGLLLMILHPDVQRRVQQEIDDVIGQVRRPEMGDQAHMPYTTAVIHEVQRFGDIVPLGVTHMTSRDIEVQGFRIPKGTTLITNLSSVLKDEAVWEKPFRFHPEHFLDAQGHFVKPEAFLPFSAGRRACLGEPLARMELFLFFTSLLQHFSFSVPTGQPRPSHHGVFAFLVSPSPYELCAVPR
Chain of ATR/ATRIP kinase (Q13535 whole entry): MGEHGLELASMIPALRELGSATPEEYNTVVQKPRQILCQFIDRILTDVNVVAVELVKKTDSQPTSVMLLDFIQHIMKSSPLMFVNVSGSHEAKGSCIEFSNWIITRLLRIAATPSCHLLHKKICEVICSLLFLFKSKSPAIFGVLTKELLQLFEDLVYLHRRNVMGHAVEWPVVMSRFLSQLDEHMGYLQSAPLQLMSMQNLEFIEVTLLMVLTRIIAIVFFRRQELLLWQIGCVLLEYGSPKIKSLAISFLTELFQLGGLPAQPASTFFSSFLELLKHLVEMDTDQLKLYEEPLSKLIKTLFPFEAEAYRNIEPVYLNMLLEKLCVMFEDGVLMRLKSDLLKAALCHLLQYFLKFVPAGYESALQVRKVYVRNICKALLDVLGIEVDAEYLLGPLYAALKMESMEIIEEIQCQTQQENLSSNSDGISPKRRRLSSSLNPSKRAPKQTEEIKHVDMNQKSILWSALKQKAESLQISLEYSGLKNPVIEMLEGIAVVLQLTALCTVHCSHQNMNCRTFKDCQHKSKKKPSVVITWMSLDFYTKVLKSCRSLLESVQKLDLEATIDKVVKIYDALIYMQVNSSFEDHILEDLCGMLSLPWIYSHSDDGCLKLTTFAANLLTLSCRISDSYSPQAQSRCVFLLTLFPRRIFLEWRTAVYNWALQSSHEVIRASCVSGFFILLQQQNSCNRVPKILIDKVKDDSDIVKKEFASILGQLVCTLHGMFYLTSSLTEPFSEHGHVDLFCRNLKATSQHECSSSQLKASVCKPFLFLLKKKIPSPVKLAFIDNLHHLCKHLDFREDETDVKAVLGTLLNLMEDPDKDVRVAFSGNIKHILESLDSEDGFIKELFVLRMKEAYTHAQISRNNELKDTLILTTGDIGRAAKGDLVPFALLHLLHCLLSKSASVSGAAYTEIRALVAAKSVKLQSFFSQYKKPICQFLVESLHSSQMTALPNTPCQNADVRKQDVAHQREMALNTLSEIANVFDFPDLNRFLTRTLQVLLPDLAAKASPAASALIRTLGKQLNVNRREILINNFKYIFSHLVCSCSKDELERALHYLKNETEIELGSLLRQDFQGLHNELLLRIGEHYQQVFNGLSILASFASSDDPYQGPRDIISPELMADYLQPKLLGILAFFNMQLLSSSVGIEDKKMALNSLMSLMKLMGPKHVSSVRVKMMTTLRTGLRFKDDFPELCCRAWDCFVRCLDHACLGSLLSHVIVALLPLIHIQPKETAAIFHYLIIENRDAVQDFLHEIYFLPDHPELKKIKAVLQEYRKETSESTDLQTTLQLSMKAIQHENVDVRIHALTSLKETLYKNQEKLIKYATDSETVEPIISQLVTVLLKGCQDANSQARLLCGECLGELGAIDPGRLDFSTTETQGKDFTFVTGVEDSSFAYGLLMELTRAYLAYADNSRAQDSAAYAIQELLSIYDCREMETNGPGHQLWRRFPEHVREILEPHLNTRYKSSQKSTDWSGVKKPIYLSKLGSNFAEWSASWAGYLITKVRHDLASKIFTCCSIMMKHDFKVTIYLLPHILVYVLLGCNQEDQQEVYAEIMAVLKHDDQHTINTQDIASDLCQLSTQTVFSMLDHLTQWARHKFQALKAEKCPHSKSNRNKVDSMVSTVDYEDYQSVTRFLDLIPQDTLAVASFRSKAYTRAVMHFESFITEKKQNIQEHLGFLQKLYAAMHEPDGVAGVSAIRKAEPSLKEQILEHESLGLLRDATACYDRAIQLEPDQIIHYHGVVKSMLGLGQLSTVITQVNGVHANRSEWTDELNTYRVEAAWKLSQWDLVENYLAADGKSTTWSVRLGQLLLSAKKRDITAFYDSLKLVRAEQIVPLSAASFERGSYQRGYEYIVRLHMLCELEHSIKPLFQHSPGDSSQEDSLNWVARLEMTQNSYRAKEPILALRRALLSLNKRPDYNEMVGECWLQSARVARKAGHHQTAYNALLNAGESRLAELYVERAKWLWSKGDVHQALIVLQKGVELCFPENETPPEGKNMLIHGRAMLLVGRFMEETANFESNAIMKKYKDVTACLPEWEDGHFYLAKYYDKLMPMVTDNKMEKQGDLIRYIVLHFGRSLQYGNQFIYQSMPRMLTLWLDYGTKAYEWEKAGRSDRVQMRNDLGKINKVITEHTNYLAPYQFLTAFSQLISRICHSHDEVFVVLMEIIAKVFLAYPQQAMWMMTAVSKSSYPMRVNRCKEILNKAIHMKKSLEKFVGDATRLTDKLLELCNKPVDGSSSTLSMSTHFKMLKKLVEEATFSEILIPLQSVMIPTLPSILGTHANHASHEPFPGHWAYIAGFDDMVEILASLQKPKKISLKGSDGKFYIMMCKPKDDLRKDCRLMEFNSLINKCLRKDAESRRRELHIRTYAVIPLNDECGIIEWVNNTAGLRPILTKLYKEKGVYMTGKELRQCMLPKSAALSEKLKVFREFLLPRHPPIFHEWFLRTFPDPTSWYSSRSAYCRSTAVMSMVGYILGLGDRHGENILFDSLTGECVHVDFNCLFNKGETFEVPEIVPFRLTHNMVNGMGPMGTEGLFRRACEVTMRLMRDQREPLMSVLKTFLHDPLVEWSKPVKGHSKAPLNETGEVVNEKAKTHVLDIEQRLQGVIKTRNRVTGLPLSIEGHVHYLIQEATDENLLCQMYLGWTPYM
Chain of ATR/ATRIP kinase (Q8WXE1 whole entry partner): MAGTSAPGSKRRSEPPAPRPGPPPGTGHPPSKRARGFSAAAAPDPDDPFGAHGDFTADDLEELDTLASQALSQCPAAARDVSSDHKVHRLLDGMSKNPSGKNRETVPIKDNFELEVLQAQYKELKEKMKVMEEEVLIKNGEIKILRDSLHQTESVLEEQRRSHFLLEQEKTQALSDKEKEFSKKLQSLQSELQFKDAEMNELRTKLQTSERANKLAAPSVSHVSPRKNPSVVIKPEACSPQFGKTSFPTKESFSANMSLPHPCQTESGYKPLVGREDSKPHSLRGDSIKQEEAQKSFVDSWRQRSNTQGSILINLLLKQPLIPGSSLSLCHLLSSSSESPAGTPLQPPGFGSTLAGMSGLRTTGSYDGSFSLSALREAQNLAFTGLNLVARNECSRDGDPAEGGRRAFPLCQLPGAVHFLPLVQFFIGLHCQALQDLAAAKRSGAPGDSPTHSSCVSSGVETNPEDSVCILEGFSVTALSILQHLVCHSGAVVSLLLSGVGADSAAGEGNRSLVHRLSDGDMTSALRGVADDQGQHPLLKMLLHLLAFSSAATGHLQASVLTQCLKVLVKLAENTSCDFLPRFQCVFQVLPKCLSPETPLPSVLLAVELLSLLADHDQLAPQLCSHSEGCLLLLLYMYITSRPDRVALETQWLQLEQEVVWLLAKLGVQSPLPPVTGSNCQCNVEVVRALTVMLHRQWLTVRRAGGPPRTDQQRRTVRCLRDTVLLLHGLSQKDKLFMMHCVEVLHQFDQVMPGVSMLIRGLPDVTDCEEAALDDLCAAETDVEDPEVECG

One may read the IC50 as the concentration needed to halve the response being measured. Consider `C[C@@H]1COCCN1c1nc2c(cnn2-c2cc[nH]n2)c2c1ccn2S(C)(=O)=O` [Compound 1, (R)-3-methyl-4-(1-(methylsulfonyl)-6-(1H-pyrazol-3-yl)-1,6-dihydropyrazolo[3,4-b]pyrrolo[2,3-d]pyridin-4-yl)morpholine trifluoroacetate], for which the IC50 was greater than 10 µM at CYP2D6; greater than 10 µM at CYP2C19; 0.0012 µM at ATR/ATRIP kinase; 0.0296 µM in test [1]; greater than 10 µM on CYP3A4 (setting [2]); greater than 10 µM at CYP3A4 (setting [3]).
`C[C@@H]1COCCN1c1nc2c(cnn2-c2cc[nH]n2)c2c1CCN2S(C)(=O)=O` [Compound 2, (R)-3-methyl-4-(1-(methylsulfonyl)-6-(1H-pyrazol-3-yl)-1,2,3,6-tetrahydropyrazolo[3,4-b]pyrrolo[2,3-d]pyridin-4-yl)morpholine trifluoroacetate]: the half-inhibitory concentration (IC50) was greater than 10 µM on CYP2D6; greater than 10 µM on CYP2C19; 0.00069 µM against ATR/ATRIP kinase; 0.0373 µM in test [1]; greater than 10 µM at CYP3A4 (setting [2]); greater than 10 µM at CYP3A4 (setting [3]).

The record behind these values is US20240025899A1, “TRIHETEROCYCLIC DERIVATIVE, AND PHARMACEUTICAL COMPOSITION AND APPLICATION THEREOF” (SHANGHAI DE NOVO PHARMATECH CO., LTD., priority 2020, published 2024).
